In US5912232A, “Anti-inflammatory polypeptide antagonists of human I1-8” (Board of Regents of the University of Nebraska, priority 1996, dated 1999):
Where no end group is shown, it is not given here.

Legend:
[1] = system: arachidonic acid induced ear inflammation; test: arachidonic acid induced ear inflammation in mice (ear thickness/edema); assay type: in vivo, C57BL/6 female mice; details: ip 1 hour prior to arachidonic acid; ear thickness 1 hour post challenge; FIGS. 1 and 2
Protocol: A stock solution of 5 mgml of example 1 was prepared in D-PBS. The Analog 1 consists of 88.1% active peptide and the calculations were adjusted to compensate for the activity of the Analog 1. Serial dilutions were then made resulting in solutions of appropriate doses of Analog 1 in 0.2 ml. The animals were injected ip with 0.2 ml of the appropriate solution 1 hour prior to arachidonic acid application. The study consisted of various dosage groups as well as excipient groups. The animals used for the study were C57BL/6 female mice, which were obtained from Jackson Laboratories (age 8 weeks and weight 15-18 g). The mice were housed in conventional cages, fed pelleted food and given water ad libitum. The arachidonic acid (Sigma Lot #42H7817) was dissolved in methyl alcohol resulting in a final concentration of 2 mg/20 μl. […] One hour post challenge, the test and control ears were measured for thickness using a Mitutoyo No. 7300 gauge caliper. The thickness was recorded in units of 0.001 inches. […] The effect of Analog 1, which is on IL-8 low molecular weight peptide analog residue 6-19 on arachidonic acid induced ear inflammation was evaluated in vivo, according to the methods described in Example II. In this model, the application of arachidonic acid to the pinna of mice induces an immediate PMN-associated erythema and edema which may be measured by change in thickness. […]

[2] = system: neutrophils (PMNs); test: IL-8 induced Ca release in Fluo-3 loaded neutrophils, flow cytometry; assay type: cell-based, human; details: PMNs pre-incubated with analog at 10^-6 M; IL-8 10^-6 M; FIG. 6
Protocol: Polymorphonuclear leukocytes (≥95% neutrophils, PMNs) were isolated from heparinized (10 μ/ml) blood collected from healthy volunteers. Erythrocytes were removed by 6% dextran sedimentation for 30 minutes at room temperature, and then the supernatant was subjected to Ficoll (Ficoll-Papque, Pharmacia LKB, Uppsala, Sweden) density gradient centrifugation. PMNs were obtained from the pellet. Contaminated erythrocytes were eliminated by one cycle of hypotonic lysis. After an additional washing step the cells were counted and adjusted to a final concentration of 5×10^6 /ml in RPMI 1640 (Gibco, Grand Island, N.Y.).
The loading procedure with Fluo-3 (Molecular Probes, Eugene, Oreg.) was carried out with PMNs suspended at a density of 5×10^6 /ml in fresh RPMI 1640 containing 2.0 μM Fluo-3 AM (prediluted in dimethyl sulfoxide; Sigma Chemicals) in polypropylene tubes (Falcon 2063, Becton Dickinson). We incubated the PMNs for 25 minutes at 37 degrees C in a 5% CO2 incubator. […]
Before addition of the stimuli the fluorescence channel of the FACScan Plus (Becton Dickinson) was adjusted to find the basal fluorescence level of loaded but unstimulated PMNs. The samples were excited by an argon laser at 488 nm and emission was measured at 525 nm (green fluorescence, channel FL1). […] The fluorescence of Fluo-3-loaded cells was measured in arbitrary fluorescence units of mean channel fluorescence (channel FL1). […]

[3] = system: IL-8; test: activity of IL-8 analog compared to analog 1 (test not specified); set-up: species or system human; details: C-terminally truncated (residues 6 to 16)
Protocol: The biological activity of an analog of the invention is determined by blocking with the analog an activity with naturally occurring IL-8.

Sequence | EC-50 for blocking edema [1] [μg/animal] | block of Ca signal transduction induced by IL-8 [2] | activity compared to analog 1 [3]
RCQCIKTYSKPFHPK (cysteine pairing not given here) [Analog 1] | ~1 | blocked the Ca signal transduction | 
RCQCLQTLQGIHPK (cysteine pairing not given here) [Analog 2, Derived from Alpha Chemokine GRO (MGSA); b140 describes it as IL-8 residues 6 to 16] |  |  | slight loss of activity
